Data reported in EP4656642A1, “ESTROGEN RECEPTOR PROTEOLYSIS TARGETING CHIMERA COMPOUND AND USE THEREOF” (GAN & LEE PHARM CO., LTD, priority 2023, dated 2024).

Tests used:
Type in all cases: cell-based
MCF-7 cells = experiment: Inhibition of cell proliferation of MCF-7 cells (CCK-8, 9 days)
Method in brief: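 Read-out was CCK-8 viability after 9-day continuous exposure (37°C, 5% CO2) of MCF-7 cells plated at 800/well in 10% FBS DMEM across several compound concentrations. Values are proliferation IC50s.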

ERα [1] = molecular target: T1, ERα (Homo sapiens, UniProt P03372); experiment: Degradation of ERα in T-47D cells (immunoblotting, 4 h); set-up: host or cells: T-47D
T1 sequence (P03372 1-595): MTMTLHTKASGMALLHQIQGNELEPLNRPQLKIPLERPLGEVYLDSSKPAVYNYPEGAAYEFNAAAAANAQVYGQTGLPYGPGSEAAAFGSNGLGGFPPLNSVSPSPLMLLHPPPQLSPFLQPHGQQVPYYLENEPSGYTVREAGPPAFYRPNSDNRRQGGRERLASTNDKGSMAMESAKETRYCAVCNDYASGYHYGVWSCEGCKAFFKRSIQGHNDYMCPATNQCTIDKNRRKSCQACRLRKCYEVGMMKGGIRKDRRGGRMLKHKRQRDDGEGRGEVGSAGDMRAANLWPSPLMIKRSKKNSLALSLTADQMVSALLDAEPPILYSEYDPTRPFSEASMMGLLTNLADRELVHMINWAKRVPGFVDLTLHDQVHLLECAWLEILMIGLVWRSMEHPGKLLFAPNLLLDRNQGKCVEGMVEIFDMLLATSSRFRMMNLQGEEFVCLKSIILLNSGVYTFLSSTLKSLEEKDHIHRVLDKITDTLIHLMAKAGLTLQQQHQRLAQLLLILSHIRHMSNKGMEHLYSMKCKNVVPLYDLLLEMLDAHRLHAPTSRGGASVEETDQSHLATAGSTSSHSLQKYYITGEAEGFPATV
Method in brief: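 ERα protein levels were assessed by immunoblot of RIPA lysates (with protease inhibitor) after 4 h exposure at 37°C. Compound was added in DMSO to T-47D cells at final concentrations of 0.15-1000 nM.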

ERα [2] = molecular target: T1, ERα; experiment: Degradation of ERα in MCF-7 cells (immunoblotting, 4 h)
Method in brief: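 Degradation rate reflects ERα band intensity, corrected to an internal reference protein, relative to control. Values come from Western blotting of lysates from MCF-7 cells exposed 4 h at 37°C to compounds at final concentrations of 0.15-1000nM.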

T-47D cells = experiment: Inhibition of cell proliferation in T-47D cells (CCK-8, 6 days); settings: 6 days of treatment
Text: Test Example 2: Inhibitory effect of the PROTAC compounds provided in the present disclosure on cell proliferation in T-47D cells (source ATCC)
The complete medium required for T-47D cells was 1640 ( ATCC, Product number: A10491-01) basal medium containing 10% fetal bovine serum. T-47D cells were inoculated in 96-well plates at a density of 3,000 cells/well, and different concentrations of the PROTAC compounds 1-55 provided in the examples of the present disclosure and a positive control sample ARV-471 (source: Innochem) were prepared to treat cells, and the cells were treated at 37°C in a cell culture incubator with 5% CO2 for 6 days. Cell viability was detected using a CCK-8 kit (Beyotime, Product number: C0040) according to the manufacturer's instructions. […] Table 2 IC50 values for inhibition of the proliferation of T-47D cells by the PROTAC compounds provided by the present disclosure and the positive control sample

[3] = treated for 9 days, CCK-8 kit (Table 6)

## O=C1CCC(N2Cc3c(ccc4c3OCC43CCN(C4CC5(C4)CN(c4ccc([C@@H]6c7ccc(O)cc7CC[C@@H]6c6ccccc6)cc4)C5)CC3)C2=O)C(=O)N1 (stereo partly drawn) [L18]
MCF-7 cells; [3]
  IC50: 544 nM
ERα [1]; 1nM compound
  Degradation rate (%) of ERα in T-47D cells: 13%
ERα [1]; 10nM compound
  Degradation rate (%) of ERα in T-47D cells: 8%
ERα [2]; 1nM compound
  Degradation rate (%) of ERα in MCF-7 cells: -6%
ERα [2]; 10nM compound
  Degradation rate (%) of ERα in MCF-7 cells: 5%

## O=C1CCC(N2C(=O)c3ccc4c(c3C2=O)OCC42CCN(C3CC4(C3)CN(c3ccc([C@@H]5c6ccc(O)cc6CC[C@@H]5c5ccccc5)cc3)C4)CC2)C(=O)N1 (stereo partly drawn) [L19]
MCF-7 cells; [3]
  IC50: 86 nM
ERα [1]; 1nM compound
  Degradation rate (%) of ERα in T-47D cells: 12%
ERα [1]; 10nM compound
  Degradation rate (%) of ERα in T-47D cells: 9%
ERα [2]; 1nM compound
  Degradation rate (%) of ERα in MCF-7 cells: 9%
ERα [2]; 10nM compound
  Degradation rate (%) of ERα in MCF-7 cells: 14%

## O=C1CCC(N2Cc3c(ccc4c3OC3(CC4)CCN(C4CCC5(CC4)CCN(c4ccc([C@@H]6c7ccc(O)cc7CC[C@@H]6c6ccccc6)cc4)CC5)CC3)C2=O)C(=O)N1 (stereo partly drawn) [L20]
MCF-7 cells; [3]
  IC50: 2190 nM
ERα [1]; 1nM compound
  Degradation rate (%) of ERα in T-47D cells: 28%
ERα [1]; 10nM compound
  Degradation rate (%) of ERα in T-47D cells: 41%
ERα [2]; 1nM compound
  Degradation rate (%) of ERα in MCF-7 cells: -12%
ERα [2]; 10nM compound
  Degradation rate (%) of ERα in MCF-7 cells: 6%

## O=C1CCC(N2Cc3c(ccc4c3OC3(CC4)CCN(C4CC5(CCN(c6ccc([C@@H]7c8ccc(O)cc8CC[C@@H]7c7ccccc7)cc6)CC5)C4)CC3)C2=O)C(=O)N1 (stereo partly drawn) [L21]
MCF-7 cells; [3]
  IC50: 91 nM
ERα [1]; 1nM compound
  Degradation rate (%) of ERα in T-47D cells: 26%
ERα [1]; 10nM compound
  Degradation rate (%) of ERα in T-47D cells: 21%
ERα [2]; 1nM compound
  Degradation rate (%) of ERα in MCF-7 cells: -11%
ERα [2]; 10nM compound
  Degradation rate (%) of ERα in MCF-7 cells: -17%

## O=C1CCC(N2Cc3c(ccc4c3OC3(CC4)CCN(C4CCC5(CC4)CN(c4ccc([C@@H]6c7ccc(O)cc7CC[C@@H]6c6ccccc6)cc4)C5)CC3)C2=O)C(=O)N1 (stereo partly drawn) [L22]
MCF-7 cells; [3]
  IC50: 111 nM
ERα [1]; 1nM compound
  Degradation rate (%) of ERα in T-47D cells: -7%
ERα [1]; 10nM compound
  Degradation rate (%) of ERα in T-47D cells: 9%
ERα [2]; 1nM compound
  Degradation rate (%) of ERα in MCF-7 cells: 3%
ERα [2]; 10nM compound
  Degradation rate (%) of ERα in MCF-7 cells: 18%

## O=C1CCC(N2C(=O)c3cc4c(cc3C2=O)OC2(CC4)CN(C3CC4(CCN(c5ccc(C6c7ccc(O)cc7CCC6c6ccccc6)cc5)CC4)C3)C2)C(=O)N1 (stereo not drawn) [M9]
T-47D cells; Table 2
  IC50: 101 nM

## O=C1CCC(N2C(=O)c3cc4c(cc3C2=O)OC2(CC4)CN(C3CC4(CCN(c5ccc([C@@H]6c7ccc(O)cc7CC[C@@H]6c6ccccc6)cc5)CC4)C3)C2)C(=O)N1 (stereo partly drawn) [M10]
T-47D cells; Table 2
  IC50: 14 nM
ERα [1]; 1nM compound
  Degradation rate (%) of ERα in T-47D cells: 22%
ERα [1]; 10nM compound
  Degradation rate (%) of ERα in T-47D cells: 54%

## O=C1CCC(N2Cc3cc4c(cc3C2=O)CCC2(CCN(C3CC5(CCN(c6ccc([C@@H]7c8ccc(O)cc8CC[C@@H]7c7ccccc7)cc6)CC5)C3)CC2)O4)C(=O)N1 (stereo partly drawn) [M12]
MCF-7 cells; 9 days of treatment, CCK-8, Table 5
  IC50: 10 nM
MCF-7 cells; [3]
  IC50: 12 nM
T-47D cells; Table 2
  IC50: 2 nM
T-47D cells; Table 3
  IC50: 2 nM

## CC1(C(=O)N2CCC(N3CCC4(CC3)COc3c4ccc4c3CN(C3CCC(=O)NC3=O)C4=O)CC2)CCN(c2ccc([C@@H]3c4ccc(O)cc4CC[C@@H]3c3ccccc3)cc2)CC1 (stereo partly drawn) [N1]
T-47D cells; Table 3
  IC50: 1.18 nM
ERα [1]; 1nM compound
  Degradation rate (%) of ERα in T-47D cells: 58%
ERα [1]; 10nM compound
  Degradation rate (%) of ERα in T-47D cells: 79%
ERα [2]; 1nM compound
  Degradation rate (%) of ERα in MCF-7 cells: 54%
ERα [2]; 10nM compound
  Degradation rate (%) of ERα in MCF-7 cells: 68%

## O=C1CCC(N2Cc3c(ccc4c3OCC43CCN(CC4(F)CCN(CC5CCN(c6ccc([C@@H]7c8ccc(O)cc8CC[C@@H]7c7ccccc7)cc6)CC5)CC4)CC3)C2=O)C(=O)N1 (stereo partly drawn) [N6]
T-47D cells; Table 3
  IC50: 0.87 nM
ERα [1]; 1nM compound
  Degradation rate (%) of ERα in T-47D cells: 35%
ERα [1]; 10nM compound
  Degradation rate (%) of ERα in T-47D cells: 62%
ERα [2]; 1nM compound
  Degradation rate (%) of ERα in MCF-7 cells: 34%
ERα [2]; 10nM compound
  Degradation rate (%) of ERα in MCF-7 cells: 55%

## N#CC1(CN2CCC3(CC2)COc2c3ccc3c2CN(C2CCC(=O)NC2=O)C3=O)CCN(CC2CCN(c3ccc([C@@H]4c5ccc(O)cc5CC[C@@H]4c4ccccc4)cc3)CC2)CC1 (stereo partly drawn) [N7]
T-47D cells; Table 3
  IC50: 1.72 nM
ERα [1]; 1nM compound
  Degradation rate (%) of ERα in T-47D cells: 56%
ERα [1]; 10nM compound
  Degradation rate (%) of ERα in T-47D cells: 67%
ERα [2]; 1nM compound
  Degradation rate (%) of ERα in MCF-7 cells: 2%
ERα [2]; 10nM compound
  Degradation rate (%) of ERα in MCF-7 cells: 13%

## O=C1CCC(N2Cc3c(ccc4c3OCC43CCN(C(=O)[C@H]4CC[C@@H](N(CC5CC5)CC5CCN(c6ccc([C@@H]7c8ccc(O)cc8CC[C@@H]7c7ccccc7)cc6)CC5)CC4)CC3)C2=O)C(=O)N1 (stereo partly drawn) [N11]
MCF-7 cells; [3]
  IC50: 4.29 nM
ERα [1]; 1nM compound
  Degradation rate (%) of ERα in T-47D cells: 53%
ERα [1]; 10nM compound
  Degradation rate (%) of ERα in T-47D cells: 57%
ERα [2]; 1nM compound
  Degradation rate (%) of ERα in MCF-7 cells: 35%
ERα [2]; 10nM compound
  Degradation rate (%) of ERα in MCF-7 cells: 64%

## O=C1CCC(N2C(=O)c3cc4c(cc3C2=O)OCC2(CCN(C3CC5(C3)CN(c3ccc(C6c7ccc(O)cc7CCC6c6ccccc6)cc3)C5)CC2)C4)C(=O)N1 (stereo not drawn) [O2]
T-47D cells; Table 2
  IC50: 180 nM
